According to patent US4879384A, “Preparation of thiocycloalkno [3,2-b] pyridines” (Ortho Pharmaceutical Corporation, priority 1988, dated 1989):
Read-outs that look alike come from different tables or passages of the source. Each block holds one compound with its values, some of them ahead of it.

Assays:
calcium channels = biological target: T1, calcium channels (Oryctolagus cuniculus, UniProt P15381); test: Inhibition of nitrendipine binding to calcium channels; format: New Zealand white rabbit (heart membranes); settings: for IC50: Table II
T1 construct: from tissue; host or cells: rabbit heart membranes (female New Zealand white rabbits; 42,000 xg pellet)
Method: (1) Inhibition of nitrendipine binding to calcium channels.
The assay for inhibition of nitrendipine binding follows the following procedure:
Female, New Zealand white rabbits (1-2 kg) are sacrificed by cervical dislocation, and the heart is immediately removed, cleaned, and chopped into small pieces. The tissue is homogenized in 5X volume of 0.05M Hepes buffer, pH 7.4. The homogenate is centrifuged at 4000 xg for 10 minutes; the supernatant is recentrifuged at 42,000 xg for 90 minutes. The resulting membrane pellet is resuspended (0.7 ml/g weight) in 0.05M Hepes, pH 7.4 and stored at -70° C. until used. Each tube of the binding assay contains ^3 H-nitrendipine (0.05-0.50nM), buffer, membranes (0.10 ml), and test compound in a total volume of 1.0 ml. After 90 minutes at 4° C., the bound nitrendipine is separated from the unbound by filtration on Whatman GF/C fibers. After rinsing, the filters are dried and counted in a liquid scintillation counter.
Non-specific binding of ^3 H-nitrendipine (that amount bound in the presence of excess unlabelled nitrendipine) is subtracted from the total bound to obtain specifically bound radiolabeled nitrendipine. The amount of specifically bound nitrendipine in the presence of a test compound is compared to that amount bound in the absence of a compound. A percent displacement (or inhibition) can then be obtained.

Trachea Muscle = test: Inhibition of calcium dependent smooth muscle contraction (trachea); format: cell-based, dog; settings: Table II; concentration 0.3 μM
Method: The test for inhibition of calcium dependent smooth muscle contraction is determined according to the following procedure:
Trachea from dogs sacrificed by excess KCl injection are stored overnight at 4° C. in oxygenated Krebs-Henseleit buffer. Tracheal rings, one cartilage segment wide (5-10 mm), are cut starting from the bronchial end. After cutting the cartilage, the trachealis muscle tissue is suspended in oxygenated Krebs-Henseleit buffer at 37° C. in a 25 ml tissue bath. After a 60 minutes equilibration period, the tissues are challenged with 10 uM carbachol. After 5 minutes the tissues are rinsed and allowed to rest 50 minutes. The tissues are then challenged with 50 mM KCl and, after 30 minutes, the contractions are quantitated. The tissues are then rinsed and reequilibrated for 50 minutes. Test compounds are then added for 10 minutes, and the tissue is rechallenged with 50 mMKcl. After 30 minutes, the contraction is recorded and used to determine the % inhibition of control.
The percent inhibition of smooth muscle contracting is calculated from response data before and after drug treatment. [formula] A rating is assigned to the compound depending upon the percent inhibition obtained.

T1 sequence (P15381 whole entry, other chains not shown): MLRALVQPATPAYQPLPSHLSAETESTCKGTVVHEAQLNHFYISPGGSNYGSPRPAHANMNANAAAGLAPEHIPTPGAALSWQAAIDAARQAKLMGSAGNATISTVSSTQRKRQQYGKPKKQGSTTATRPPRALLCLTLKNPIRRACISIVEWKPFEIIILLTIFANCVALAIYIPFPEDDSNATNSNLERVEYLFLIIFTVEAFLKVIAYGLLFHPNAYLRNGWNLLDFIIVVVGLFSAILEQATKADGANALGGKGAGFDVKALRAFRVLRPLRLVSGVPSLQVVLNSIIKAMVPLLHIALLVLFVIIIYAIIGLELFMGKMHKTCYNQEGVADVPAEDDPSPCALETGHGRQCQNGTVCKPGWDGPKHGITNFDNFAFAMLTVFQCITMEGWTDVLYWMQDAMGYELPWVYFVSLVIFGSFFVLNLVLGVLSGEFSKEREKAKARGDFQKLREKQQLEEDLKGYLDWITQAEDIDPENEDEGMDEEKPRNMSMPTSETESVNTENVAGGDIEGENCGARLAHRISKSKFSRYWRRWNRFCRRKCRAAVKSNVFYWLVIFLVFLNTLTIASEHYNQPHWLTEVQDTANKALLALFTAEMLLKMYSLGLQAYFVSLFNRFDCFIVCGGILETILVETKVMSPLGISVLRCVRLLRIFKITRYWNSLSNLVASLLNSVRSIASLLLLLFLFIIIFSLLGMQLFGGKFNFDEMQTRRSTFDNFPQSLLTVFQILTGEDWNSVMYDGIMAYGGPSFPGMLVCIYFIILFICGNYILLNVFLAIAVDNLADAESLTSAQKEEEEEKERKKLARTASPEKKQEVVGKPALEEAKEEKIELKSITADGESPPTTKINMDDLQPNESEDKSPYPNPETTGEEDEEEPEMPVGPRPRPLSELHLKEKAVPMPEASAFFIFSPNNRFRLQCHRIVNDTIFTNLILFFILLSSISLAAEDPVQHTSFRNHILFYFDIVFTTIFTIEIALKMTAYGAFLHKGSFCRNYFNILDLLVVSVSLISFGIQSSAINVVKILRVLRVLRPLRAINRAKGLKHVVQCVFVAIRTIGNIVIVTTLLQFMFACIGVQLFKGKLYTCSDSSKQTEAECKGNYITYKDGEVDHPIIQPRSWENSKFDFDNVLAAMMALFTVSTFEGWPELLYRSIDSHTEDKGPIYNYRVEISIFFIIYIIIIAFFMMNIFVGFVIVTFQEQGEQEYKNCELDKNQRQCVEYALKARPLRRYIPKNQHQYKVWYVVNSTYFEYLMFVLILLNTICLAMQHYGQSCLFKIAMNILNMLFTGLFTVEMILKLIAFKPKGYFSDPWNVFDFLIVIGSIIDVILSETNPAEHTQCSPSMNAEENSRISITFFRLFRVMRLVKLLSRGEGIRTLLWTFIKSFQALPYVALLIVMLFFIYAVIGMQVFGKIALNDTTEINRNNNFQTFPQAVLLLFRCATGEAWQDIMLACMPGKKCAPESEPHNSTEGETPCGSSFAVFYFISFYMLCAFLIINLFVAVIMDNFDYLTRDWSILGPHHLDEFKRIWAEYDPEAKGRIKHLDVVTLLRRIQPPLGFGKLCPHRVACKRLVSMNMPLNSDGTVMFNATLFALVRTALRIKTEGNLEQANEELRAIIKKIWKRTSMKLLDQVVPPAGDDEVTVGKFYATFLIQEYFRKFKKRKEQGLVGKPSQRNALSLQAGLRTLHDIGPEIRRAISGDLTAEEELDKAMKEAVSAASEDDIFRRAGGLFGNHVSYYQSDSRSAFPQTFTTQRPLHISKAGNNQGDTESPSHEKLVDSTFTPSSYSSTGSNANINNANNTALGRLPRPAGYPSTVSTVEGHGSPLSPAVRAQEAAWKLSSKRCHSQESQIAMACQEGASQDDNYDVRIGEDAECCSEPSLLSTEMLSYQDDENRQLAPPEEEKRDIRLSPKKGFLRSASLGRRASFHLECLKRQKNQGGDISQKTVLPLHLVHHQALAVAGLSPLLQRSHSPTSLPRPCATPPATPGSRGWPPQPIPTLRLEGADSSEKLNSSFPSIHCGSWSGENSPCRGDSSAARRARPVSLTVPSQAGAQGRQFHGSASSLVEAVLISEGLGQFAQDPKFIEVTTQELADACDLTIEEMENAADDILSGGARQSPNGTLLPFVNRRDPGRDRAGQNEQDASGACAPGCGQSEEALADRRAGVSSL
T1 sequence (P13806 27-960 partner limits assumed, other chains not shown): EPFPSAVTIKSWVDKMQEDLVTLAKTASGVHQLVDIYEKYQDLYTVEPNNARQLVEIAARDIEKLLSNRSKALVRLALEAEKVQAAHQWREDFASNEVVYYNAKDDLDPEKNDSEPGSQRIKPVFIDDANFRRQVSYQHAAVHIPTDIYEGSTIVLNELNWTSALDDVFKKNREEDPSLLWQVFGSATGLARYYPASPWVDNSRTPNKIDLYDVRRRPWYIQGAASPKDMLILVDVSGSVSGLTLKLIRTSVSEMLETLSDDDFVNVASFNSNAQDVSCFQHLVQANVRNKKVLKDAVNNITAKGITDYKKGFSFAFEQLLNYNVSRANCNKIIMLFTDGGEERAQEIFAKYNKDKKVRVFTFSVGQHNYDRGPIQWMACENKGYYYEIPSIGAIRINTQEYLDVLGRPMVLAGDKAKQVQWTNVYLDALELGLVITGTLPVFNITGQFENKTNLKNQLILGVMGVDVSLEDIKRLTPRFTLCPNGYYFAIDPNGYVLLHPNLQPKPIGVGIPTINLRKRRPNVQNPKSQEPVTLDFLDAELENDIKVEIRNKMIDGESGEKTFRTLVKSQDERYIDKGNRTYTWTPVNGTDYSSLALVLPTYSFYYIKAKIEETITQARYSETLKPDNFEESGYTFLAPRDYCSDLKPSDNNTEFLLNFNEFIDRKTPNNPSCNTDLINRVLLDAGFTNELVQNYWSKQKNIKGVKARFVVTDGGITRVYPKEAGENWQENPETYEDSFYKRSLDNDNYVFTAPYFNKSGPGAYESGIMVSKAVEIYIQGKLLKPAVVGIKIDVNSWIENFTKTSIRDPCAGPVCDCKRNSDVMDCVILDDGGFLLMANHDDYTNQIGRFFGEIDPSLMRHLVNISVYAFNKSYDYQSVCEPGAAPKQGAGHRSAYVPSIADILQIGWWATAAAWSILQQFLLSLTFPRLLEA
T1 sequence (P13806 961-1106 partner limits assumed, other chains not shown): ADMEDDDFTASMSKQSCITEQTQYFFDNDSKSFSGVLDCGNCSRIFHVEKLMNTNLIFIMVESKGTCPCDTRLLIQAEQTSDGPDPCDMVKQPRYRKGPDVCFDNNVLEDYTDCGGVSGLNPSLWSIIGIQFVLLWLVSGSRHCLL

IC50 (calcium channels; second part, read-out: Inhibition Nitrendipine binding IC^50): 110 nM
SMILES: CC1=C(C(=O)OCCN(C)Cc2ccccc2)C(c2ccccc2[N+](=O)[O-])C2=C(CCCCCS2(=O)=O)N1 (stereo not shown) [5 2-NO2 C6 H4 CH2 CH2 NCH3 CH2 C6 H5]

Inhibition of Nitrendipine binding (percent at stated concentration) (calcium channels; Table I, @ 8.0): 56%
SMILES: COC(=O)C1=C(C)NC2(O)CCS(=O)(=O)C2C1c1ccccc1[N+](=O)[O-] (stereo not shown) [Methyl 2,3,3a,4,7,7a-hexahydro-3a-hydroxy-5-methyl-7-(2-nitrophenyl)-1,1-dioxo-thieno[3,2-b]pyridine-6-carboxylate]

IC50 (calcium channels; first part, read-out: Inhibition of Nitrendipine binding IC50): 108 nM
SMILES: CCOC(=O)C1=C(C)NC2=C(C1c1cccnc1SC)S(=O)(=O)CCCCC2 (stereo not shown) [drawing 8 CH2 CH3]
Inhibition of Trachea Muscle Contraction, % Inhibition (Trachea Muscle): 79%
